Results on three compounds are retold here after patent US20120270774A1, “MACROCYCLIC COMPOUNDS, COMPOSITIONS COMPRISING THEM AND METHODS FOR PREVENTING OR TREATING HIV INFECTION” (Yissum Research Development Company of the Hebrew …, priority 2009, published 2012).

In one data set the test system is HIV-1 strand HXB2. Kind of data set: HIV-1 infection inhibition, MAGI assay. Format: cell-based. To be noted: for effect on HIV-1 infection (in words): MAGI assay, cultured cells, μM range. As to the method:
Hela cells were obtained from ATCC, (Manassas, Va., USA) and then grown in 75 cm2 flasks with approximately 0.5×10^6 cells/flask at 37° C. in 5% CO2 atmosphere and at a relative humidity of 95%. The culture growth medium consisted of Dulbecco's Modified Eagle Medium (DMEM) supplemented with 10% heat-inactivated fetal bovine serum (FBS), 1% nonessential amino acids. The medium was replaced every other day. Titration of HIV-1 strand HXB2 in the absence or presence of the inhibitor was carried out by the multinuclear activation of a galactosidase indicator (MAGI) assay, similarly to the procedure described by Kimpton and […] (Virol. 66, 2232, 1992). Briefly, HeLa-CD4+beta-gal cells were transferred into 96-well plates at 15×10^3 cells per well. On the following day, the cells were infected with 50 μl of serially diluted virus in the presence of […] of DEAE-dextran (Pharmacia, Sweden). Two days post-infection, cultured cells were fixed with 1% formaldehyde and 0.2% glutaraldehyde in PBS. Following intensive wash with PBS, cells were stained with a solution of 4 mM potassium ferrocyanide, 4 mM potassium ferricyanide, 2 mM MgCl2 and 0.4 mg/ml of X-Gal (Ornat, Israel). Blue cells were counted under a light microscope. According to a slightly different procedure, the assay consisted of CD4 expressing Hela P4 cells containing the β-galactosidase reporter gene placed downstream […]. the HIV-LTR promotor. These cells were seeded 24 hours prior to viral infection at a density of 5×10^5 […] in 24 well culture plates (TPP model by Beyneix). 50 μL of virus solution prepared from CEM infected cells' supernatant, were incubated for 1 hour with the assayed peptides at the required concentrations, at 4° C. 10 μg of anti CD4 monoclonal antibodies 13B8.2 or […] were used as control. After incubation the virus solution was diluted to a total volume of 1 ml and was added to the Hela P4 cells. The cells were incubated at these conditions for 3 days after which their infection rate was assayed according to the β-galactosidase activity in the cells extract. The cells were washed well, harvested and disintegrated in a buffer containing 60 mM Na2HPO4, 40 mM NaH2PO4, 10 mM KCl, 1 mM MgSO4, 50 mM β-mercaptoethanol, 2.5 mM EDTA, 0.125% NP40, 0.125% triton, 20% glycerol, 0.2 mM PMSF and 100 U/ml approtinin. The cells extract was cleaned by centrifuge at 4° C. for 15 min at 13,000 rpm. β-galactosidase activity was determined by incubation of 150 μL of total cell extract at 37° C. for 2 hours in the presence of 6 mM ONPG (O-Nitrophenyl-β-D-galactopyranoside) in a buffer containing 80 mM Na2HPO4, 1 mM β-mercaptoethanol and 10 m MMgCl2, followed by absorption measurement at 410 nm. The β-galactosidase activity was normalized according to the total protein quantity in the assay.

The subject of data set [1] is pseudo typed viruses that express VSV-gp instead of gp-120. It is filed as cell-based.
Data set [2] in a line: Permeability ex-vivo, Ussing side by side diffusion chamber. It is filed as in vitro ADME, Wistar rats. To be noted: Ussing model.
Data set [3] has as its system intestinal brush border enzymes. Kind of data set: Brush border membrane vesicles (BBMV) stability. It is filed as in vitro ADME, Wistar rats. Particulars: incubation in BBMVs at 37° C. As to the method: Brush border membrane vesicles (BBMVs) were prepared from combined duodenum, jejunum, and upper ileum by a Ca^+2 precipitation method ([…]., 1997., Biochim Biophys Acta 1323, 45-56, […] et al. 2003., Biochem Biophys Res Commun 301, 8-12). The intestines of 5 male Wistar rats, 200-250 gr, were rinsed with ice cold 0.9% NaCl and freed of mucus; the mucosa was scraped off the luminal surface with glass slides and put immediately into buffer containing […] and 10 mM Tris-HCl (pH 7.5, 4° C.) and then homogenated (Polytron PT 1200, Kinematica AG, Switzerland). CaCl2 was added to a final concentration of 10 mM. The homogenate was left shaking for 30 min at 4° C. and then centrifuged at 10,000 g for 10 min. The supernatant was then centrifuged at 48,000 g for 30 min and an additional two purification steps were undertaken by suspending the pellet in 300 mM mannitol and 10 mM Hepes/Tris (pH 7.5) and centrifuging at […]. Purification of brush border membranes was assayed using the brush border membrane enzyme markers gamma-glutamyl transpeptidase (GGT), leucine amino peptidase (LAP) and alkaline phosphatase. During the course of these studies, enrichment in brush border membrane enzymes varied between 13- and 18-fold. The enzymatic reaction was performed as previously reported (Ovadia et al., 2009, Bioorg Med Chem 18, 580-589). […]

A further data set relates to human liver microsomes. It is filed as in vitro ADME. Here is the method: The oxidative metabolism was evaluated in pooled liver microsomes of rats and humans with or without 3 μM of ketoconazole (CYP3A4 inhibitor) (Yang et al., 2005, Biopharm Drug Dispos 26, 387-402). The microsomes were purchased from BD Biosciences (Woburn, Mass.). […] The incubation mixture (3 ml) was prepared in triplicate for each species in a 0.1 m potassium phosphate buffer (pH 7.4) containing 1 μM of substrate, 0.5 μM CYP enzymes, 1.8 mM glucose-6-phosphate and 0.4 units/ml glucose-6-phosphate dehydrogenase. After a 5 min preincubation at 37° C., the reaction was initiated by adding β-NADPH (0.15 mM final concentration). Aliquots of 0.25 ml were taken at 0, 15 and 30 min and placed into 3 volumes of icecold acetonitrile (containing an internal standard) to terminate the reaction. The samples were vortexed and centrifuged at 10000 RPM for 8 min to collect supernatant for sample analysis.

Data set [4] is described as follows: Pharmacokinetics of oral CG-1 with or without ritonavir.
Protocol: The pharmacokinetic profile of CG-1 was studied following intravenous (IV) and per-os (PO) administration to rats. Studies were performed in conscious Wistar male rats. An indwelling cannula was implanted into the left jugular vein 24 hours before the pharmacokinetic experiment to allow full recovery of the animals from the surgical procedure. Animals (n=5) received an intravenous (IV) bolus dose of 1 mg/kg of CG-1 or 10 mg/kg by oral gavage (n=5), CG-1 was dissolved in water. […] CG-1 administration. Plasma was separated by centrifugation (4000 g, 5 min, 4° C.) and stored at −70° C. pending analysis. A non-compartmental pharmacokinetic approach was used to compare pharmacokinetic profiles obtained following different modes of administration and to calculate bioavailability values. All calculations were performed utilizing WinNonlin® 5.0.1 software (Pharsight Corporation, Mountain View, Calif., USA).
The pharmacokinetic tests were repeated as above with the addition of ritonavir to the oral administration of CG-1. The study included three groups; the first group received 10 mg/kg of CG-1 in aqueous solution, the second one received an emulsion of 10 mg/kg of CG-1 and 10 mg/kg of ritonavir and the third group received CG-1 in the same emulsion without ritonavir.
Data set [5] is described as follows: Pharmacokinetic profile of CG-1 following IV and PO administration.
Protocol: Rats were kept in a light-controlled room (light from 7:00 to 19:00) and were maintained on laboratory chow and water ad libitum.
The pharmacokinetic profile of CG-1 was studied following intravenous (IV) and per-os (PO) administration to rats. Studies were performed in conscious Wistar male rats. An indwelling cannula was implanted into the left jugular vein 24 hours before the pharmacokinetic experiment to allow full recovery of the animals from the surgical procedure. Animals (n=5) received an intravenous (IV) bolus dose of 1 mg/kg of CG-1 or 10 mg/kg by oral gavage (n=5), CG-1 was dissolved in water. […] Plasma was separated by centrifugation (4000 g, 5 min, 4° C.) and stored at −70° C. pending analysis. A non-compartmental pharmacokinetic approach was used to compare pharmacokinetic profiles obtained following different modes of administration and to calculate bioavailability values. All calculations were performed utilizing WinNonlin® 5.0.1 software (Pharsight Corporation, Mountain View, Calif., USA).
Non-compartmental pharmacokinetic analysis was performed using WinNonlin software, standard.
[6] abbreviates: PO 10 mg/kg with RTV 10 mg/kg (emulsion).

Broadly, the Tmax is the time from dosing to the highest level. In general, Cmax refers to the maximum level reached in the sampled fluid or tissue. The term AUC denotes the area under the concentration-time curve, a measure of exposure. Read a high AUC as more exposure.

Bounds are passed on as bounds.

In the case of `N=C(N)NCCCC1CN(CC(N)=O)C(=O)C(Cc2ccccc2)NC(=O)CCCCCC(=O)N1` (centres unmarked) [SC-1], the “effect on HIV-1 infection (in words)” value in the data set on HIV-1 strand HXB2 is “weak inhibitory effect”.
On to `N=C(N)NCCCC1NC(=O)CCCCCC(=O)NC(Cc2ccc(O)cc2)CN(CC(N)=O)C1=O` (centres unmarked) [MC-1], for which the “effect on HIV-1 infection (in words)” value in the data set with HIV-1 strand HXB2 was “did not reduce the infectivity”.
Consider `N=C(N)NCCCC1NC(=O)CCCCCC(=O)NC(Cc2ccccc2)CN(CC(N)=O)C1=O` (centres unmarked) [CG-1], for which the “effect on HIV-1 infection (in words)” value in the data set on HIV-1 strand HXB2 was “low μM activity”. The “inhibition of viral infection” value in the data set with HIV-1 strand HXB2 (low μM range) is given as > 80%. Moreover, the “infection inhibition of VSV-gp pseudo typed viruses” value in data set [1] was “did not have any effect”. Besides, the “permeability coefficient (Papp) ex-vivo compared with the other analogs” value in data set [2] is on record as “significantly higher than the other analogs”. Also, the “transport in the distal regions” value in data set [2] (distal regions (ileum, colon)) was “significantly lower”. The “transport in the jejunum” value in data set [2] (jejunum) is “significantly higher”. For the same compound, the “stability to enzymatic degradation in BBMVs” value in data set [3] is “metabolically stable and is not degraded”. For the same compound, in the data set with human liver microsomes, the “oxidative metabolism in liver microsomes” value is reported as “partially metabolized”. For the same compound, in the data set on human liver microsomes (human, microsomes), the “microsomal stability with ketoconazole” value is reported as “significantly improved its stability”. Besides, in data set [4] (setting [6]), the Oral bioavailability was determined as 21±3%, the T1/2 was determined as 93 ± 8 min and the Tmax is 18 ± 2 min. In addition, in data set [4] (PO 10 mg/kg, without ritonavir), the Oral bioavailability came to 7.3±1.6%, the T1/2 was found to be 73 ± 6 min and the Tmax is 18 ± 1.5 min. For the same compound, in data set [4] (with vs without ritonavir), the “Cmax increase when ritonavir was added” value is given as 3 fold. In addition, in data set [5] (IV bolus, 1 mg/kg), the Cmax is recorded as 102 ± 19 ng/mL and the Tmax amounted to 5 min. Besides, the Oral bioavailability in data set [5] (PO 10 mg/kg vs IV 1 mg/kg) is ~10%. For the same compound, in data set [5] (PO, 10 mg/kg oral gavage), the AUC was 21770 ± 63 ng·min/mL, the Cmax was found to be 866 ± 76 ng/mL and the Tmax is 18 min. In addition, in data set [5] (printed in the PO row), the CI worked out at 14.53 ± 0.33 mL/min/kg and the Vss is on record as 0.6 L/kg.
